US10265395B2, “Adjuvant compositions and related methods” (priority 2015, dated 2019)

Assays:
[1] = tested on: BSA; test: ELISA seroconversion to BSA in mice, BSA/adjuvant stability, time 0 and 6 months (Example 4); format: in vivo; conditions: for Geometric Means: Time point 6 Months; for Normalized: Day 28/29, Table 18 (to BSA only GMT of the same storage temperature)
[2] = tested on: BSA; test: ELISA seroconversion to BSA in CF-1 mice, BSA/adjuvant stability at 12 months (Example 8); format: in vivo; conditions: 12 Month; for Geometric Mean (ELISA to BSA): adjuvants at 4X, > 20 considered positive
[3] = Time 0, Day 32, mice SC 50 ug BSA/0.1 mL on days 0 and 14, value of 10 used for no seroconversion
[4] = 6 Month, Day 28/29, S = stored stability sample, F = fresh, storage in the label
[5] = Day 13, mice SC 50 ug BSA/0.1 mL
[6] = Day 28/29, mice SC 50 ug BSA/0.1 mL days 0 and 14

For BSA/PBS, the “Incidence (# Mice Seroconverted/# Mice Treated)” value ([1]; Time 0, Day 32) was 8/10, the “Geometric Mean (ELISA to BSA)” value [1, 3] was 290 and the “Geometric Means” value ([1]; Fresh) was 98. For the same substance, the “Geometric Means” value ([1]; Stability Ambient - Storage (18-27° C.)) was 243 and the “Geometric Means” value ([1]; Stability Cold - Storage (2-7° C.)) was 149.

With S-BSA/2-7° C. the “Incidence (# Mice Seroconverted/# Mice Treated)” value ([1]; 6 Month, Day 28/29) was 8/10, the Normalized ([1]; 6 Month) was 1 and the “Geometric Mean (ELISA to BSA)” value [1, 4] was 149. For the same substance, the “Incidence (# Mice Seroconverted/# Mice Treated)” value ([1]; Time 0, Day 32) was 8/10, the “Normalized (Geomean BSA/Adj06 ÷ Geomean BSA/PBS)” value ([1]; Time 0, Day 32) was 1 and the “Geometric Mean (ELISA to BSA)” value [1, 3] was 290. For the same substance, the Incidence ([2]; Day 13) was 2/9, the “Geometric Mean (ELISA to BSA)” value [2, 5] was 15 and the Incidence ([2]; Day 28/29) was 5/10. The “Geometric Mean (ELISA to BSA)” value [2, 6] was 86.

For S-BSA/RT, the “Incidence (# Mice Seroconverted/# Mice Treated)” value ([1]; 6 Month, Day 28/29) was 8/10, the Normalized ([1]; 6 Month) was 1 and the “Geometric Mean (ELISA to BSA)” value [1, 4] was 243. For the same substance, the Incidence ([2]; Day 13) was 5/10, the “Geometric Mean (ELISA to BSA)” value [2, 5] was 25 and the Incidence ([2]; Day 28/29) was 7/10. The “Geometric Mean (ELISA to BSA)” value [2, 6] was 184.

With F-BSA the “Incidence (# Mice Seroconverted/# Mice Treated)” value ([1]; 6 Month, Day 28/29) was 6/10, the “Geometric Mean (ELISA to BSA)” value [1, 4] was 98 and the Incidence ([2]; Day 13) was 5/9. The “Geometric Mean (ELISA to BSA)” value [2, 5] was 20, the Incidence ([2]; Day 28/29) was 7/10 and the “Geometric Mean (ELISA to BSA)” value [2, 6] was 149.
